The values below come from publication PMC8286840, “Identifying SARS-CoV-2 antiviral compounds by screening for small molecule inhibitors of Nsp3 papain-like protease” (Biochemical Journal, 2021).

The target in test [1] is T1, SARS-CoV-2 PLpro (nsp3 1564–1878) (Severe acute respiratory syndrome coronavirus 2, UniProt P0DTD1). Nature of the test: biochemical. The conditions noted are these: low concentration screen, read-out: % of control remaining. Set-up: FRET-quenched peptide (Pro3) cleavage by PLpro, 10 min pre-incubation, slope over 20 min, normalised to no-compound control.
Test [2] addresses T1, SARS-CoV-2 PLpro (nsp3 1564–1878). Nature of the test: biochemical. Set-up: FRET-quenched peptide (Pro3) cleavage by PLpro, 10 min pre-incubation, slope over 20 min, normalised to no-compound control. The conditions noted are these: high concentration screen, read-out: % of control remaining.

Counter-ions that a name gives are not always drawn. Like-named read-outs stand apart in the source and are kept apart here.

Take `CCNCc1nc2c(N)nc3ccccc3c2n1CC(C)(C)O` [Gardiquimod trifluoroacetate]: in test [1] (Well no.=8131), the remaining activity at 1.25 µM is 105%. Further, the remaining activity at 3.75 µM in test [2] (Well no.=8131) is 103%.
For the molecule `COc1c(N2CCNC(C)C2)c(F)cc2c(=O)c(C(=O)O)cn(C3CC3)c12` (stereo not drawn) [Gatifloxacin], the remaining activity at 1.25 µM in test [1] (Well no.=2170) came out at 103%. Further, the remaining activity at 3.75 µM in test [2] (Well no.=2170) amounted to 104%.
As for `COc1cc2ncnc(Nc3ccc(F)c(Cl)c3)c2cc1OCCCN1CCOCC1` [Gefitinib], the values for the remaining activity at 1.25 µM in test [1] (Well no.=1579) and in test [1] (Well no.=2743) were 102% and 101%, respectively. The remaining activity at 3.75 µM stood at 102% in test [2] (Well no.=1579) and 101% in test [2] (Well no.=2743).
With `COC1=C2C[C@@H](C)C[C@H](OC)[C@H](O)[C@@H](C)/C=C(\C)[C@H](OC(N)=O)[C@@H](OC)/C=C\C=C(/C)C(=O)NC(=CC1=O)C2=O` [Geldanamycin], the remaining activity at 1.25 µM in test [1] (Well no.=5019) was determined as 98.5%. Also, in test [2] (Well no.=5019), the remaining activity at 3.75 µM was 101%.
As for `Nc1ccn([C@@H]2O[C@H](CO)[C@@H](O)C2(F)F)c(=O)n1` [Gemcitabine (hydrochloride)], in test [1] (Well no.=8056), the remaining activity at 1.25 µM was determined as 96.9%. Moreover, the remaining activity at 3.75 µM in test [2] (Well no.=8056) is 100%.
Consider `Nc1ccn([C@@H]2O[C@H](CO)[C@@H](O)C2(F)F)c(=O)n1` [Gemcitabine HCl (Gemzar)], for which, in test [1] (Well no.=5059), the remaining activity at 1.25 µM is 104%. Besides, in test [2] (Well no.=5059), the remaining activity at 3.75 µM was 107%.
Consider `Nc1ccn([C@@H]2O[C@H](CO)[C@@H](O)C2(F)F)c(=O)n1` [Gemcitabine], for which the remaining activity at 1.25 µM in test [1] (Well no.=1906) is 97.8%; in test [1] (Well no.=8054), 92.7%. The remaining activity at 3.75 µM in test [2] (Well no.=1906) came to 98.5%; in test [2] (Well no.=8054), 95%.
As to `Cc1ccc(C)c(OCCCC(C)(C)C(=O)O)c1` [Gemfibrozil], the remaining activity at 1.25 µM in test [1] (Well no.=2174) was 95.4%. Moreover, the remaining activity at 3.75 µM in test [2] (Well no.=2174) came to 98.7%.
With `COC(=O)C1=CO[C@@H](O)[C@@H]2C(CO)=CC[C@H]12` [Genipin], in test [1] (Well no.=5276), the remaining activity at 1.25 µM is 95.9%. The remaining activity at 3.75 µM in test [2] (Well no.=5276) is 89.2%.
Consider `COC(=O)C1=CO[C@@H](O[C@@H]2O[C@H](CO)[C@@H](O)[C@H](O)[C@H]2O)[C@@H]2C(CO)=CC[C@H]12` [Geniposide], for which, in test [1] (Well no.=5206), the remaining activity at 1.25 µM turned out to be 102%. Also, the remaining activity at 3.75 µM in test [2] (Well no.=5206) is 97.9%.
`O=C(O)C1=CO[C@@H](O[C@@H]2O[C@H](CO)[C@@H](O)[C@H](O)[C@H]2O)[C@@H]2C(CO)=CC[C@H]12` [Geniposidic acid]: the remaining activity at 1.25 µM in test [1] (Well no.=5236) was 95.4%. Besides, the remaining activity at 3.75 µM in test [2] (Well no.=5236) stood at 95.9%.
`O=c1c(-c2ccc(O)cc2)coc2cc(O)cc(O)c12` [Genistein - 5,7-Dihydroxy-3-(4-hydroxyphenyl)-4H-1-benzopyran-4-one]: the remaining activity at 1.25 µM in test [1] (Well no.=2342) worked out at 95.4%. For the same molecule, in test [2] (Well no.=2342), the remaining activity at 3.75 µM amounted to 95.4%.
On to `O=c1c(-c2ccc(O)cc2)coc2cc(O)cc(O)c12` [Genistein], for which the remaining activity at 1.25 µM in test [1] (Well no.=573) came out at 95%; in test [1] (Well no.=3315) it was 94.8%; in test [1] (Well no.=3947), 98.6%; in test [1] (Well no.=6492), 103%. Besides, the remaining activity at 3.75 µM in test [2] (Well no.=573) was 94%; in test [2] (Well no.=3315) it was 101%; in test [2] (Well no.=3947), 98.5%; in test [2] (Well no.=6492) it was 103%.
Take `O=c1c(-c2ccc(O)cc2)coc2cc(O[C@@H]3O[C@H](CO)[C@@H](O)[C@H](O)[C@H]3O)cc(O)c12` [Genistin]: the remaining activity at 1.25 µM in test [1] (Well no.=3213) amounted to 99.7%. Further, in test [2] (Well no.=3213), the remaining activity at 3.75 µM is 97.9%.
With `O=C(O)c1cc(O)ccc1O` [Gentisic acid], the remaining activity at 1.25 µM in test [1] (Well no.=3955) is 110%. In addition, in test [2] (Well no.=3955), the remaining activity at 3.75 µM was 100%.
Take `COc1cc(-c2oc3cc(O)ccc3c(=O)c2O)ccc1O` [Geraldol]: the remaining activity at 1.25 µM in test [1] (Well no.=3512) is 98.4%. Moreover, the remaining activity at 3.75 µM in test [2] (Well no.=3512) was 102%.
In the case of `CC(=O)CC/C=C(\C)CC/C=C(\C)CC/C=C(\C)CCC=C(C)C` [Geranylgeranylacetone], the remaining activity at 1.25 µM in test [1] (Well no.=6123) is 96.8%. Also, the remaining activity at 3.75 µM in test [2] (Well no.=6123) is 95.3%.
With `C#C[C@]1(O)C=C[C@H]2[C@@H]3CCC4=CC(=O)CC[C@@H]4[C@H]3CC[C@@]21CC` [Gestodene], in test [1] (Well no.=5260), the remaining activity at 1.25 µM turned out to be 93.5%. Further, in test [2] (Well no.=5260), the remaining activity at 3.75 µM was determined as 96.8%.
As for `C#C[C@]1(O)CC[C@H]2[C@@H]3CCC4=CC(=O)CCC4=C3C=C[C@@]21CC` [Gestrinone], in test [1] (Well no.=1792), the remaining activity at 1.25 µM was 101%. Besides, the remaining activity at 3.75 µM in test [2] (Well no.=1792) amounted to 99.3%.
Take `Oc1cc(O)c(Cl)cn1` [Gimeracil]: the remaining activity at 1.25 µM in test [1] (Well no.=5056) was found to be 101%. Besides, in test [2] (Well no.=5056), the remaining activity at 3.75 µM was found to be 104%.
On to `CCCCC[C@H](O)CC(=O)CCc1ccc(O)c(OC)c1` [Gingerol], for which the remaining activity at 1.25 µM in test [1] (Well no.=3319) turned out to be 97%. In addition, the remaining activity at 3.75 µM in test [2] (Well no.=3319) stood at 101%.
As for `C[C@@H]1C(=O)O[C@H]2C[C@@]34[C@H]5C[C@@H](C(C)(C)C)[C@]36[C@@H](OC(=O)[C@@H]6O)O[C@@]4(C(=O)O5)[C@]21O` [Ginkgolide A], the remaining activity at 1.25 µM in test [1] (Well no.=1908) stood at 98.7%; in test [1] (Well no.=3613), 106%. In addition, the values for the remaining activity at 3.75 µM in test [2] (Well no.=1908) and in test [2] (Well no.=3613) were 96.1% and 104%, respectively.
Regarding `C[C@@H]1C(=O)O[C@H]2[C@H](O)[C@@]34[C@H]5C[C@@H](C(C)(C)C)[C@]36[C@@H](OC(=O)[C@@H]6O)O[C@@]4(C(=O)O5)[C@@]12O` [Ginkgolide B], the remaining activity at 1.25 µM in test [1] (Well no.=3321) was determined as 97.9%; in test [1] (Well no.=6484), 95.6%. In addition, the remaining activity at 3.75 µM in test [2] (Well no.=3321) is 101%; in test [2] (Well no.=6484), 92.7%.
As to `CC(C)=CCC[C@](C)(O[C@@H]1O[C@H](CO[C@@H]2O[C@@H](CO)[C@H](O)[C@H]2O)[C@@H](O)[C@H](O)[C@H]1O)[C@H]1CC[C@]2(C)[C@@H]1[C@H](O)C[C@@H]1[C@@]3(C)CC[C@H](O[C@@H]4O[C@H](CO)[C@@H](O)[C@H](O)[C@H]4O[C@@H]4O[C@H](CO)[C@@H](O)[C@H](O)[C@H]4O)C(C)(C)[C@@H]3CC[C@]12C` [Ginsenoside Rc], the remaining activity at 1.25 µM in test [1] (Well no.=6436) stood at 93.3%. The remaining activity at 3.75 µM in test [2] (Well no.=6436) stood at 92.6%.
For `CC(C)=CCC[C@](C)(O)[C@H]1CC[C@]2(C)[C@@H]1[C@H](O)C[C@@H]1[C@@]3(C)CC[C@H](O)C(C)(C)[C@@H]3[C@@H](O[C@@H]3O[C@H](CO)[C@@H](O)[C@H](O)[C@H]3O)C[C@]12C` [Ginsenoside Rh1], the remaining activity at 1.25 µM in test [1] (Well no.=6546) came to 98.2%. In addition, the remaining activity at 3.75 µM in test [2] (Well no.=6546) stood at 93.7%.
In the case of `CC(C)=CCC[C@](C)(O)[C@H]1CC[C@]2(C)[C@@H]1[C@H](O)C[C@@H]1[C@@]3(C)CC[C@H](O[C@@H]4O[C@H](CO)[C@@H](O)[C@H](O)[C@H]4O)C(C)(C)[C@@H]3CC[C@]12C` [Ginsenoside Rh2], in test [1] (Well no.=6590), the remaining activity at 1.25 µM came out at 98.4%. Further, the remaining activity at 3.75 µM in test [2] (Well no.=6590) is 102%.
